Test system: MV-4-11 cells
Test: Gene expression microarray analysis (Affymetrix PrimeView) and GSEA
Assay type: cell-based, human
Design: RFU PODN (11730768_x_at) / Fold change /veh PODN (11730768_x_at) / RFU LINC00158 (11744669_a_at) / Fold change /veh LINC00158 (11744669_a_at) / RFU DUSP10 (11751237_a_at) / Fold change /veh DUSP10 (11751237_a_at) / RFU ID3 (11757404_x_at) / Fold change /veh ID3 (11757404_x_at) / RFU PLEKHG5 (11737974_s_at) / Fold change /veh PLEKHG5 (11737974_s_at) / RFU LRRC4B (11730491_at) / Fold change /veh LRRC4B (11730491_at) / RFU GIMAP4 (11747438_a_at) / Fold change /veh GIMAP4 (11747438_a_at) / RFU KRT8 (11758183_x_at) / Fold change /veh KRT8 (11758183_x_at) / RFU CNN1 (11734310_a_at) / Fold change /veh CNN1 (11734310_a_at) / RFU VPS37D (11726825_at) / Fold change /veh VPS37D (11726825_at) / RFU C10orf10 (11716522_x_at) / Fold change /veh C10orf10 (11716522_x_at) / RFU KIR2DL2 /// KIR2DL4 /// KIR2DL5A /// KIR2DL5B /// KIR2DS1 /// KIR2DS2 /// KIR2DS3 /// KIR2DS4 /// KIR3DL3 /// KIR3DL3 /// KIR3DS1 (11738374_at) / Fold change /veh KIR2DL2 /// KIR2DL4 /// KIR2DL5A /// KIR2DL5B /// KIR2DS1 /// KIR2DS2 /// KIR2DS3 /// KIR2DS4 /// KIR3DL3 /// KIR3DL3 /// KIR3DS1 (11738374_at) / RFU C1QL1 (11718748_at) / Fold change /veh C1QL1 (11718748_at) / RFU TMPRSS4 (11747572_a_at) / Fold change /veh TMPRSS4 (11747572_a_at) / RFU HAMP (11756126_x_at) / Fold change /veh HAMP (11756126_x_at) / RFU RNFT2 (11725882_a_at) / Fold change /veh RNFT2 (11725882_a_at) / RFU NR4A2 (11747474_a_at) / Fold change /veh NR4A2 (11747474_a_at) / RFU ABCC12 (11746883_a_at) / Fold change /veh ABCC12 (11746883_a_at) / RFU TMEM136 (11760407_x_at) / Fold change /veh TMEM136 (11760407_x_at) / RFU CLDN22 /// WWC2 (11732394_at) / Fold change /veh CLDN22 /// WWC2 (11732394_at) / RFU HLA-DPB1 (11760878_x_at) / Fold change /veh HLA-DPB1 (11760878_x_at) / RFU SPINT1 (11716480_a_at) / Fold change /veh SPINT1 (11716480_a_at) / RFU GAP43 (11754022_s_at) / Fold change /veh GAP43 (11754022_s_at) / RFU A4GNT (11735810_at) / Fold change /veh A4GNT (11735810_at) / RFU PRB3 (11715151_x_at) / Fold change /veh PRB3 (11715151_x_at) / RFU TUBB4B (11761932_at) / Fold change /veh TUBB4B (11761932_at) / RFU CAPN14 (11732068_a_at) / Fold change /veh CAPN14 (11732068_a_at) / RFU TMCC2 (11721928_a_at) / Fold change /veh TMCC2 (11721928_a_at) / RFU IRGQ (11745062_a_at) / Fold change /veh IRGQ (11745062_a_at) / RFU FAM174B (11720279_a_at) / Fold change /veh FAM174B (11720279_a_at) / RFU TMPRSS4 (11748680_a_at) / Fold change /veh TMPRSS4 (11748680_a_at) / RFU FAM212B (11763350_a_at) / Fold change /veh FAM212B (11763350_a_at) / RFU PLEKHG5 (11743358_a_at) / Fold change /veh PLEKHG5 (11743358_a_at) / RFU ZSCAN30 (11745921_a_at) / Fold change /veh ZSCAN30 (11745921_a_at) / RFU CMKLR1 (11741424_a_at) / Fold change /veh CMKLR1 (11741424_a_at) / RFU LOC101060620 /// MAPK8IP1 (11723275_at) / Fold change /veh LOC101060620 /// MAPK8IP1 (11723275_at) / RFU SPTSSB (11747773_x_at) / Fold change /veh SPTSSB (11747773_x_at) / RFU PRSS12 (11739890_at) / Fold change /veh PRSS12 (11739890_at) / RFU BIN1 (11741810_x_at) / Fold change /veh BIN1 (11741810_x_at) / RFU WNT11 (11732464_a_at) / Fold change /veh WNT11 (11732464_a_at) / RFU C10orf10 (11716521_a_at) / Fold change /veh C10orf10 (11716521_a_at) / RFU C5orf56 (11738089_at) / Fold change /veh C5orf56 (11738089_at) / RFU CYB561 (11721691_x_at) / Fold change /veh CYB561 (11721691_x_at) / RFU ANKRD19P (11752326_a_at) / Fold change /veh ANKRD19P (11752326_a_at) / RFU OR2T12 /// OR2T33 /// OR2T8 (11738714_s_at) / Fold change /veh OR2T12 /// OR2T33 /// OR2T8 (11738714_s_at) / RFU VCAN (11748164_a_at) / Fold change /veh VCAN (11748164_a_at) / RFU JSRP1 (11732532_at) / Fold change /veh JSRP1 (11732532_at) / RFU KRTAP10-11 (11738290_x_at) / Fold change /veh KRTAP10-11 (11738290_x_at) / RFU MYO3A (11730013_a_at) / Fold change /veh MYO3A (11730013_a_at) / RFU EBF3 (11725865_a_at) / Fold change /veh EBF3 (11725865_a_at) / RFU CAMK2N1 (11719241_x_at) / Fold change /veh CAMK2N1 (11719241_x_at) / RFU C5orf56 (11738088_a_at) / Fold change /veh C5orf56 (11738088_a_at) / RFU OLFML3 (11715873_a_at) / Fold change /veh OLFML3 (11715873_a_at) / RFU LOC100653217 /// NTM (11731650_a_at) / Fold change /veh LOC100653217 /// NTM (11731650_a_at) / RFU MAPK11 (11762145_a_at) / Fold change /veh MAPK11 (11762145_a_at) / RFU FIZ1 (11724087_x_at) / Fold change /veh FIZ1 (11724087_x_at) / RFU OASL (11726364_x_at) / Fold change /veh OASL (11726364_x_at) / RFU SOX15 (11748057_x_at) / Fold change /veh SOX15 (11748057_x_at) / RFU CD79A (11719716_a_at) / Fold change /veh CD79A (11719716_a_at) / RFU HIST1H1D (11736915_at) / Fold change /veh HIST1H1D (11736915_at) / RFU CASKIN2 (11723855_a_at) / Fold change /veh CASKIN2 (11723855_a_at) / RFU LOC730098 (11760151_x_at) / Fold change /veh LOC730098 (11760151_x_at) / RFU OR4N2 (11742367_at) / Fold change /veh OR4N2 (11742367_at) / RFU PRRT2 (11749266_a_at) / Fold change /veh PRRT2 (11749266_a_at) / RFU SNX32 (11753110_a_at) / Fold change /veh SNX32 (11753110_a_at) / RFU CDHR5 (11726645_a_at) / Fold change /veh CDHR5 (11726645_a_at) / RFU RCAN1 (11760418_a_at) / Fold change /veh RCAN1 (11760418_a_at) / RFU FAM167A (11723789_a_at) / Fold change /veh FAM167A (11723789_a_at) / RFU FAM26E (11764081_at) / Fold change /veh FAM26E (11764081_at) / RFU ISYNA1 (11749810_s_at) / Fold change /veh ISYNA1 (11749810_s_at) / RFU ACY1 (11761880_at) / Fold change /veh ACY1 (11761880_at) / RFU 11764098_at / Fold change /veh 11764098_at / RFU SAMD14 (11745864_x_at) / Fold change /veh SAMD14 (11745864_x_at) / RFU NPB (11741838_a_at) / Fold change /veh NPB (11741838_a_at) / RFU TMPRSS6 (11731388_a_at) / Fold change /veh TMPRSS6 (11731388_a_at) / RFU KRTAP10-2 (11738614_at) / Fold change /veh KRTAP10-2 (11738614_at) / RFU ARHGAP8 /// PRR5-ARHGAP8 (11727945_x_at) / Fold change /veh ARHGAP8 /// PRR5-ARHGAP8 (11727945_x_at) / RFU KRTAP5-7 /// NADSYN1 (11734609_at) / Fold change /veh KRTAP5-7 /// NADSYN1 (11734609_at) / RFU RASL12 (11751679_a_at) / Fold change /veh RASL12 (11751679_a_at) / RFU CDKN2B (11736163_a_at) / Fold change /veh CDKN2B (11736163_a_at) / RFU PRF1 (11729649_at) / Fold change /veh PRF1 (11729649_at) / RFU, ZNF638 /// ZNF638-IT1 / Fold change vs veh, ZNF638 /// ZNF638-IT1 / RFU, PANK3 / Fold change vs veh, PANK3 / RFU, SH3YL1 / Fold change vs veh, SH3YL1 / RFU, ZEB2 / Fold change vs veh, ZEB2 / RFU, NRIP1 / Fold change vs veh, NRIP1 / RFU, PTTG1IP / Fold change vs veh, PTTG1IP / RFU, CAPN2 / Fold change vs veh, CAPN2 / RFU, MED14 / Fold change vs veh, MED14 / RFU, SNORA58 / Fold change vs veh, SNORA58 / RFU, C1orf63 / Fold change vs veh, C1orf63 / RFU, LRRFIP1 / Fold change vs veh, LRRFIP1 / RFU, NDUFAF7 / Fold change vs veh, NDUFAF7 / RFU, SLC12A2 / Fold change vs veh, SLC12A2 / RFU, IBTK / Fold change vs veh, IBTK / RFU, ESF1 / Fold change vs veh, ESF1 / Fold change vs veh, TMEM50B / RFU, TAOK1 / Fold change vs veh, TAOK1 / RFU, ACBD3 / Fold change vs veh, ACBD3 / RFU, TMA16 / Fold change vs veh, TMA16 / RFU, RWDD3 / Fold change vs veh, RWDD3 / RFU, BCAT1 / Fold change vs veh, BCAT1 / RFU, EDEM3 / Fold change vs veh, EDEM3 / RFU, TMEM33 / Fold change vs veh, TMEM33 / RFU, WDR75 / Fold change vs veh, WDR75 / RFU, AHCTF1 / Fold change vs veh, AHCTF1 / RFU, TFRC / Fold change vs veh, TFRC / RFU, ZDHHC17 / Fold change vs veh, ZDHHC17 / RFU, NOM1 / Fold change vs veh, NOM1 / RFU, ARL8B / Fold change vs veh, ARL8B / RFU, ZBTB11 / Fold change vs veh, ZBTB11 / RFU, TAMM41 / Fold change vs veh, TAMM41 / RFU, KIAA1704 /// LOC100996395 / Fold change vs veh, KIAA1704 /// LOC100996395 / RFU, ING1 / Fold change vs veh, ING1 / RFU, TRMT61B / Fold change vs veh, TRMT61B / RFU, FUBP3 / Fold change vs veh, FUBP3 / RFU, TP53 / Fold change vs veh, TP53 / RFU, TNKS2 / Fold change vs veh, TNKS2 / RFU, ZFP14 / Fold change vs veh, ZFP14 / RFU, ACTR2 / Fold change vs veh, ACTR2 / RFU, PPP3R1 / Fold change vs veh, PPP3R1 / RFU, PIK3R1 / Fold change vs veh, PIK3R1 / RFU, HNRNPA1 / Fold change vs veh, HNRNPA1 / RFU, RNF170 / Fold change vs veh, RNF170 / RFU, ZNF28 / Fold change vs veh, ZNF28 / RFU, RNGTT / Fold change vs veh, RNGTT / RFU, OGT / Fold change vs veh, OGT / RFU, BRD1 / Fold change vs veh, BRD1 / RFU, MARS / Fold change vs veh, MARS / RFU, ZNF655 / Fold change vs veh, ZNF655 / RFU, FAHD1 / Fold change vs veh, FAHD1 / RFU, BDP1 / Fold change vs veh, BDP1 / RFU, LRRCC1 / Fold change vs veh, LRRCC1 / RFU, ARID1A / Fold change vs veh, ARID1A / RFU, ZNF146 / Fold change vs veh, ZNF146 / RFU, ZNF330 / Fold change vs veh, ZNF330 / RFU, GPN3 / Fold change vs veh, GPN3 / RFU, C9orf123 / Fold change vs veh, C9orf123 / RFU, N4BP2L2 / Fold change vs veh, N4BP2L2 / RFU, ARFIP1 / Fold change vs veh, ARFIP1 / RFU, FAM179B / Fold change vs veh, FAM179B / RFU, BCL10 / Fold change vs veh, BCL10 / RFU, UHRF1BP1L / Fold change vs veh, UHRF1BP1L / RFU, BET1 / Fold change vs veh, BET1 / RFU, CNOT2 / Fold change vs veh, CNOT2 / RFU, ZNF268 / Fold change vs veh, ZNF268 / Fold change vs veh, ZNF507 / RFU, DGCR2 / Fold change vs veh, DGCR2 / RFU, WDSUB1 / Fold change vs veh, WDSUB1 / Fold change vs veh, HSP90B1 /// MIR3652 / RFU, ADSS / Fold change vs veh, ADSS / RFU, GK / Fold change vs veh, GK / RFU, ZNF148 / Fold change vs veh, ZNF148 / RFU, TAF9 / Fold change vs veh, TAF9 / RFU, SLC1A5 / Fold change vs veh, SLC1A5 / RFU, SLMO2 / Fold change vs veh, SLMO2 / RFU, ABCC4 / Fold change vs veh, ABCC4 / RFU, LOC101060439 /// RAP1B / Fold change vs veh, LOC101060439 /// RAP1B / RFU, RFX7 / Fold change vs veh, RFX7 / RFU, GTPBP10 / Fold change vs veh, GTPBP10 / RFU, CNEP1R1 / Fold change vs veh, CNEP1R1 / RFU, BIVM-ERCC5 /// ERCC5 / Fold change vs veh, BIVM-ERCC5 /// ERCC5 / RFU, ILF3 / Fold change vs veh, ILF3 / RFU 11762660_at / Fold change /veh 11762660_at / RFU VCAN (11757783_s_at) / Fold change /veh VCAN (11757783_s_at) / RFU DDX43 (11728927_at) / Fold change /veh DDX43 (11728927_at) / RFU KRT8 (11758188_x_at) / Fold change /veh KRT8 (11758188_x_at) / RFU NKD1 (11759106_at) / Fold change /veh NKD1 (11759106_at) / RFU SRD5A1 (11742802_a_at) / Fold change /veh SRD5A1 (11742802_a_at) / RFU TPSAB1 /// TPSB2 (11721975_s_at) / Fold change /veh TPSAB1 /// TPSB2 (11721975_s_at) / RFU GSTM3 (11746129_a_at) / Fold change /veh GSTM3 (11746129_a_at) / RFU IL23R (11737362_x_at) / Fold change /veh IL23R (11737362_x_at) / RFU TMEM51 (11727254_a_at) / Fold change /veh TMEM51 (11727254_a_at) / RFU PIWIL2 (11732686_x_at) / Fold change /veh PIWIL2 (11732686_x_at) / RFU ORM1 (11744905_x_at) / Fold change /veh ORM1 (11744905_x_at) / RFU CCDC152 (11743942_at) / Fold change /veh CCDC152 (11743942_at) / RFU ECM1 (11717891_a_at) / Fold change /veh ECM1 (11717891_a_at) / RFU IL23R (11748794_a_at) / Fold change /veh IL23R (11748794_a_at) / RFU TNFAIP8L3 (11732012_x_at) / Fold change /veh TNFAIP8L3 (11732012_x_at) / RFU MBOAT4 (11741988_at) / Fold change /veh MBOAT4 (11741988_at) / RFU 11764193_at / Fold change /veh 11764193_at / RFU TMEM53 (11763286_at) / Fold change /veh TMEM53 (11763286_at) / RFU MAGEB2 (11727129_at) / Fold change /veh MAGEB2 (11727129_at) / RFU TMEM200A (11744735_a_at) / Fold change /veh TMEM200A (11744735_a_at) / RFU CCDC152 (11751479_a_at) / Fold change /veh CCDC152 (11751479_a_at) / RFU FAM211A (11726209_a_at) / Fold change /veh FAM211A (11726209_a_at) / RFU RGS16 (11746705_a_at) / Fold change /veh RGS16 (11746705_a_at) / RFU VCAN (11755009_s_at) / Fold change /veh VCAN (11755009_s_at) / RFU RHOB (11743442_s_at) / Fold change /veh RHOB (11743442_s_at) / RFU RGS16 (11720943_a_at) / Fold change /veh RGS16 (11720943_a_at) / RFU RGS16 (11720944_at) / Fold change /veh RGS16 (11720944_at) / RFU, VPS4B / Fold change vs veh, VPS4B / RFU, CREB1 / Fold change vs veh, CREB1 / RFU, DNAJC13 / Fold change vs veh, DNAJC13 / RFU, GNAQ / Fold change vs veh, GNAQ / RFU, CDK5R1 / Fold change vs veh, CDK5R1 / RFU, ZRANB3 / Fold change vs veh, ZRANB3 / RFU, CUL4A / Fold change vs veh, CUL4A / RFU, CCNY / Fold change vs veh, CCNY / RFU, UFL1 / Fold change vs veh, UFL1 / RFU, COG3 / Fold change vs veh, COG3 / RFU, DIAPH2 / Fold change vs veh, DIAPH2 / RFU, SKA2 / Fold change vs veh, SKA2 / RFU, AFF3 / Fold change vs veh, AFF3 / RFU, LMF1 / Fold change vs veh, LMF1 / RFU, IPO11 / Fold change vs veh, IPO11 / RFU, DFFB / Fold change vs veh, DFFB / RFU, FOXP1 / Fold change vs veh, FOXP1 / RFU, CARD8 / Fold change vs veh, CARD8 / RFU, STRN3 / Fold change vs veh, STRN3 / RFU, ADK / Fold change vs veh, ADK / RFU, RASSF2 / Fold change vs veh, RASSF2 / RFU, WIPF1 / Fold change vs veh, WIPF1 / RFU, LARP1B / Fold change vs veh, LARP1B / RFU, RASA1 / Fold change vs veh, RASA1 / RFU, RB1 / Fold change vs veh, RB1 / RFU, PPFIA1 / Fold change vs veh, PPFIA1 / RFU, MAT2A / Fold change vs veh, MAT2A / RFU, CCT5 / Fold change vs veh, CCT5 / RFU, WDR92 / Fold change vs veh, WDR92 / RFU, CUX1 / Fold change vs veh, CUX1 / RFU, TTC7A / Fold change vs veh, TTC7A / RFU, TMEM135 / Fold change vs veh, TMEM135 / RFU, DEPTOR / Fold change vs veh, DEPTOR / RFU, CPM / Fold change vs veh, CPM / RFU, DNAJB6 / Fold change vs veh, DNAJB6 / RFU, CACNA2D3 / Fold change vs veh, CACNA2D3 / RFU, DTX4 / Fold change vs veh, DTX4 / RFU, TFCP2 / Fold change vs veh, TFCP2 / RFU, GMCL1 /// GMCL1P1 / Fold change vs veh, GMCL1 /// GMCL1P1 / RFU, AEBP2 / Fold change vs veh, AEBP2 / RFU, SNHG1 /// SNORD22 /// SNORD25 /// SNORD26 /// SNORD27 /// SNORD28 /// SNORD29 /// SNORD31 / Fold change vs veh, SNHG1 /// SNORD22 /// SNORD25 /// SNORD26 /// SNORD27 /// SNORD28 /// SNORD29 /// SNORD31 / Fold change (Aza/veh), C12orf56 (ProbeSet 11735607_a_at) / Fold change (ACY-1035/veh), C12orf56 (ProbeSet 11735607_a_at) / Fold change (Aza/veh), FGFR1OP (ProbeSet 11751329_s_at) / Fold change (ACY-1035/veh), FGFR1OP (ProbeSet 11751329_s_at) / Fold change (Aza/veh), VPS36 (ProbeSet 11739960_a_at) / Fold change (ACY-1035/veh), VPS36 (ProbeSet 11739960_a_at) / RFU SYPL1 (11715823_x_at) / Fold change /veh SYPL1 (11715823_x_at) / RFU IGFBP7 (11715501_s_at) / Fold change /veh IGFBP7 (11715501_s_at) / RFU REEP3 (11722064_at) / Fold change /veh REEP3 (11722064_at) / RFU IGLL1 (11728026_x_at) / Fold change /veh IGLL1 (11728026_x_at): dose or concentration left out as unconfirmed
Conditions: MV-4-11 cells, 48 hours

Question: For `Nc1ncn([C@@H]2O[C@H](CO)[C@@H](O)[C@H]2O)c(=O)n1` [azacitidine], which “Fold change /veh IGFBP7 (11715501_s_at)” value is on record?
Answer: Its value is 0.50.

Source: PMC5218480 (PLoS ONE, 2017)
